Columns and labels:
Torin2 = compound: C1=CC(=CC(=C1)N2C(=O)C=CC3=CN=C4C=CC(=CC4=C32)C5=CN=C(C=C5)N)C(F)(F)F [Torin2]
R0-3306 = compound: C1=CC2=C(C=CC(=C2)C=C3C(=O)NC(=NCC4=CC=CS4)S3)N=C1 [R0-3306]
AZD1775 = compound: C=CCn1c(=O)c2cnc(Nc3ccc(N4CCN(C)CC4)cc3)nc2n1-c1cccc(C(C)(C)O)n1 [AZD1775]
[1] = compound: CC(=O)Nc1cccc(-n2c(=O)n(C3CC3)c(=O)c3c(Nc4ccc(I)cc4F)n(C)c(=O)c(C)c32)c1
[2] = compound: CC(=O)c1c(C)c2cnc(Nc3ccc(N4CCNCC4)cn3)nc2n(C2CCCC2)c1=O
Ipatasertib/GDC0068 = compound: CC(C)NC[C@@H](C(=O)N1CCN(c2ncnc3c2[C@H](C)C[C@H]3O)CC1)c1ccc(Cl)cc1 [Ipatasertib/GDC0068]
BVD523 = compound: CC(C)Nc1cc(-c2c[nH]c(C(=O)N[C@H](CO)c3cccc(Cl)c3)c2)c(Cl)cn1 [BVD523]
SHP099 = compound: CC1(CCN(CC1)C2=CN=C(C(=N2)N)C3=C(C(=CC=C3)Cl)Cl)N [SHP099]
TGX221 = compound: CC1=CN2C(=O)C=C(N=C2C(=C1)C(C)NC3=CC=CC=C3)N4CCOCC4 [TGX221]
[3] = compound: CCC1=CN=CN=C1N2CCN(CC2)CC3=NC4=C(N3)C=C(C=C4)C(F)(F)F
[4] = compound: CCCCOc1c(C(=O)c2c(F)cc(C)cc2F)c[nH]c2nncc1-2
Luminespib/NVP-AUY922 = compound: CCNC(=O)c1noc(-c2cc(C(C)C)c(O)cc2O)c1-c1ccc(CN2CCOCC2)cc1 [Luminespib/NVP-AUY922]
[5] = compound: CCc1cnn2c(NCc3ccc[n+]([O-])c3)cc(N3CCCC[C@H]3CCO)nc12
THZ-P1-2 = compound: CN(C)C/C=C/C(=O)NC1=CC=C(C=C1)C(=O)NC2=CC=CC(=C2)NC3=NC=NC(=C3)C4=CNC5=CC=CC=C54 [THZ-P1-2]
THZ1 = compound: CN(C)C/C=C/C(=O)Nc1ccc(C(=O)Nc2cccc(Nc3ncc(Cl)c(-c4c[nH]c5ccccc45)n3)c2)cc1 [THZ1]
BSJ-01-175 = compound: CN(C)C/C=C/C(=O)Nc1ccc(O[C@@H]2CCC[C@@H](Nc3ncc(Cl)c(-c4c[nH]c5ccccc45)n3)C2)cc1 [BSJ-01-175]
senexin b = compound: CN1CCN(C(=O)c2ccc3cc(CCNc4ncnc5ccc(C#N)cc45)ccc3c2)CC1 [senexin b]
Saracatinib/AZD0530 = compound: CN1CCN(CCOc2cc(OC3CCOCC3)c3c(Nc4c(Cl)ccc5c4OCO5)ncnc3c2)CC1 [Saracatinib/AZD0530]
Flavopiridol = compound: CN1CC[C@H](c2c(O)cc(O)c3c(=O)cc(-c4ccccc4Cl)oc23)[C@H](O)C1 [Flavopiridol]
AZD2014 = compound: CNC(=O)c1cccc(-c2ccc3c(N4CCOC[C@@H]4C)nc(N4CCOC[C@@H]4C)nc3n2)c1 [AZD2014]
Rucaparib = compound: CNCc1ccc(-c2[nH]c3cc(F)cc4c3c2CCNC4=O)cc1 [Rucaparib]
[6] = compound: CNc1nc(-c2ccc3c(N)n[nH]c3c2)cc(N2C[C@@H](C(=O)NC3CCCCC3)CC[C@H]2C)n1
[7] = compound: CO[C@@H](C)Cn1c(=O)n(C)c2cnc3ccc(-c4cncc(C(C)(C)O)c4)cc3c21
Cediranib/AZD2171 = compound: COc1cc2c(Oc3ccc4[nH]c(C)cc4c3F)ncnc2cc1OCCCN1CCCC1 [Cediranib/AZD2171]
Cabozantinib = compound: COc1cc2nccc(Oc3ccc(NC(=O)C4(C(=O)Nc5ccc(F)cc5)CC4)cc3)c2cc1OC [Cabozantinib]
Doxorubicin = compound: COc1cccc2c1C(=O)c1c(O)c3c(c(O)c1C2=O)C[C@@](O)(C(=O)CO)C[C@@H]3O[C@H]1C[C@H](N)[C@H](O)[C@H](C)O1 [Doxorubicin]
AZD6738 = compound: C[C@@H]1COCCN1c1cc(C2([S@](C)(=N)=O)CC2)nc(-c2cc[nH]c3nccc2-3)n1 [AZD6738]
Alpelisib/BYL719 = compound: Cc1nc(NC(=O)N2CCC[C@H]2C(N)=O)sc1-c1ccnc(C(C)(C)C(F)(F)F)c1 [Alpelisib/BYL719]
Dasatinib = compound: Cc1nc(Nc2ncc(C(=O)Nc3c(C)cccc3Cl)s2)cc(N2CCN(CCO)CC2)n1 [Dasatinib]
[8] = compound: Cc1nn(C)c(COc2ccc(N3CCN(S(=O)(=O)N(C)C)CC3)cc2)c1-c1cccc2c(CCCOc3cccc4ccccc34)c(C(=O)O)n(CCN3CCOCC3)c12
AZD7762 = compound: NC(=O)Nc1cc(-c2cccc(F)c2)sc1C(=O)N[C@H]1CCCNC1 [AZD7762]
AZD5363 = compound: NC1(C(=O)N[C@@H](CCO)c2ccc(Cl)cc2)CCN(c2nc[nH]c3nccc2-3)CC1 [AZD5363]
Buparlisib/NVP-BKM120 = compound: Nc1cc(C(F)(F)F)c(-c2cc(N3CCOCC3)nc(N3CCOCC3)n2)cn1 [Buparlisib/NVP-BKM120]
Vorinostat = compound: O=C(CCCCCCC(=O)Nc1ccccc1)NO [Vorinostat]
Olaparib/AZD2281 = compound: O=C(c1cc(Cc2n[nH]c(=O)c3ccccc23)ccc1F)N1CCN(C(=O)C2CC2)CC1 [Olaparib/AZD2281]
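Also: breast cancer and non-malignant breast epithelial cell lines, Deep Dye Drop or Dye Drop imaging, nine half-log doses, GR normalized to time-zero plates and DMSO-only controls.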

Cell Line | GR50, 72 h (Torin2) | GR50, 72 h (R0-3306) | GR50, 72 h (AZD1775) | GR50, 72 h [1] | GR50, 72 h [2] | GR50, 72 h (Ipatasertib/GDC0068) | GR50, 72 h (BVD523) | GR50, 72 h (SHP099) | GR50, 72 h (TGX221) | GR50, 72 h [3] | GR50, 72 h [4] | GR50, 72 h (Luminespib/NVP-AUY922) | GR50, 72 h [5] | GR50, 72 h (THZ-P1-2) | GR50, 72 h (THZ1) | GR50, 72 h (BSJ-01-175) | GR50, 72 h (senexin b) | GR50, 72 h (Saracatinib/AZD0530) | GR50, 72 h (Flavopiridol) | GR50, 72 h (AZD2014) | GR50, 72 h (Rucaparib) | GR50, 72 h [6] | GR50, 72 h [7] | GR50, 72 h (Cediranib/AZD2171) | GR50, 72 h (Cabozantinib) | GR50, 72 h (Doxorubicin) | GR50, 72 h (AZD6738) | GR50, 72 h (Alpelisib/BYL719) | GR50, 72 h (Dasatinib) | GR50, 72 h [8] | GR50, 72 h (AZD7762) | GR50, 72 h (AZD5363) | GR50, 72 h (Buparlisib/NVP-BKM120) | GR50, 72 h (Vorinostat) | GR50, 72 h (Olaparib/AZD2281)
184A1 | 0.0106 µM | 2.78 µM | 0.674 µM | 0.00069 µM | 0.0897 µM | > 10 µM | 0.00782 µM | 6.56 µM | > 10 µM | > 10 µM | < 0.001 µM | 0.00549 µM | 0.0086 µM | 1.72 µM | 0.00774 µM | 0.00519 µM | > 10 µM | 4.62 µM | 0.0383 µM | 0.00164 µM | > 10 µM | > 10 µM | 0.00147 µM | 7.6 µM | 8.43 µM | 0.00333 µM | > 10 µM | 7.72 µM | 0.756 µM | 3.65 µM | 2.62 µM | > 10 µM | 1.52 µM | 2.52 µM | > 10 µM
HCC70 | 0.00585 µM | 4.53 µM | < 0.001 µM | 0.0019 µM | > 3.16 µM | 0.14 µM | 1.11 µM | > 10 µM | 0.0912 µM | > 10 µM | 0.00336 µM | 0.00765 µM | 0.0129 µM | 3.18 µM | 0.0148 µM | 0.0192 µM | > 10 µM | 0.0644 µM | 0.0784 µM | < 0.001 µM | > 10 µM | 1.27 µM | 0.00263 µM | 4.54 µM | 1.54 µM | 0.0108 µM | 1.84 µM | 4.51 µM | 0.00964 µM | > 10 µM | 0.0412 µM | 0.0256 µM | 0.437 µM | 0.413 µM | > 10 µM
MDAMB415 | 0.00771 µM | > 10 µM | 1.56 µM | 0.278 µM | 0.0304 µM | 0.0507 µM | > 10 µM | > 10 µM | 1.81 µM | 8.3 µM | 1.87 µM | 0.00909 µM | 0.0203 µM | 0.0764 µM | 0.0347 µM | 0.0616 µM | > 10 µM | 4.22 µM | 0.172 µM | 0.006 µM | > 10 µM | 1.34 µM | < 0.001 µM | 1.46 µM | 6.41 µM | 0.00521 µM | > 10 µM | > 10 µM | 0.236 µM | > 10 µM | 0.475 µM | 0.0101 µM | 1.02 µM | 2.92 µM | > 10 µM
PDX1258 | 0.0356 µM | 5.5 µM | 0.0187 µM | > 1 µM | > 3.16 µM | 4.37 µM | 4.62 µM | > 10 µM | > 10 µM | > 10 µM | < 0.001 µM | 0.0101 µM | 0.0116 µM | 0.492 µM | 0.0148 µM | 0.00362 µM | > 10 µM | 0.722 µM | 0.0943 µM | 0.401 µM | > 10 µM | > 10 µM | 0.0944 µM | 4.71 µM | 8.59 µM | 0.00914 µM | 3.53 µM | > 10 µM | 0.0216 µM | > 10 µM | 0.0152 µM | 3.52 µM | 1.36 µM | 1.57 µM | > 10 µM
PDXHCI002 | 0.123 µM | 6.43 µM | 0.23 µM | > 1 µM | 0.127 µM | > 10 µM | 4.27 µM | > 10 µM | > 10 µM | > 10 µM | 3.29 µM | 0.00439 µM | 0.0122 µM | > 10 µM | 0.0115 µM | 0.00607 µM | > 10 µM | 0.0805 µM | 0.114 µM | 9.69 µM | > 10 µM | > 10 µM | 1.82 µM | 1.47 µM | 7.21 µM | 0.00405 µM | > 10 µM | > 10 µM | 0.509 µM | > 10 µM | 0.0705 µM | > 10 µM | 1.44 µM | 0.282 µM | 3.93 µM
AU565 | 0.00547 µM | 0.478 µM | 0.216 µM | > 1 µM | 0.165 µM | 3.89 µM | > 10 µM | > 10 µM | > 10 µM | 9.42 µM | 0.142 µM | 0.00456 µM | 0.00743 µM | 5.22 µM | 0.0187 µM | 0.00616 µM | > 10 µM | 4.82 µM | 0.09 µM | 0.00361 µM | > 10 µM | 7.64 µM | 0.00478 µM | > 10 µM | 9.13 µM | 0.0352 µM | 8.56 µM | 0.27 µM | 5.35 µM | > 10 µM | 0.805 µM | 5.83 µM | 0.106 µM | 1.07 µM | > 10 µM
MCF10A | 0.032 µM | 5.9 µM | 6.21 µM | 0.00336 µM | 1.95 µM | > 10 µM | 1.28 µM | > 10 µM | > 10 µM | > 10 µM | 0.504 µM | 0.00762 µM | 0.0162 µM | 7 µM | 0.0723 µM | 1.46 µM | > 10 µM | 4.83 µM | 0.152 µM | 0.473 µM | > 10 µM | > 10 µM | 0.163 µM | 9.75 µM | > 10 µM | 0.0108 µM | 9.08 µM | > 10 µM | 0.709 µM | > 10 µM | 1.81 µM | > 10 µM | 1.47 µM | 2.53 µM | > 10 µM
SUM229PE | 0.0523 µM | 6.23 µM | 0.00928 µM | 0.00774 µM | 0.956 µM | > 10 µM | 1.6 µM | > 10 µM | > 10 µM | > 10 µM | 0.0124 µM | 0.00595 µM | 0.0141 µM | 5.54 µM | 0.0185 µM | 0.0424 µM | > 10 µM | 5.44 µM | 0.109 µM | 0.0116 µM | > 10 µM | > 10 µM | 0.453 µM | 8.64 µM | 6.79 µM | 0.031 µM | 3.34 µM | > 10 µM | 0.094 µM | > 10 µM | 0.0909 µM | > 10 µM | 1.27 µM | 3.48 µM | > 10 µM
